The values that follow come from US7968525B1, “Use of RNA interference to validate new termiticide target sites and a method of termite control” (University of Florida Research Foundation, Inc., priority 2007, dated 2011).

One assay concerns beta glucosidase. The note with it: in vitro enzyme assays, earlier work; cited from earlier work.
The next assay concerns exoglucanases. The note with it: in vitro enzyme assays, earlier work; cited from earlier work.
Another assay deals with termite. The note with it: bioassays, earlier work; cited from earlier work.
For assay [1], the system named is R. flavipes workers. As to the kind of experiment: Hex-2 dsRNA feeding bioassay with and without JH (morphology, lethal molts). The note with it: feeding on Hex-2 dsRNA alone or JH alone. It counts as in vivo, Reticulitermes flavipes. As to the method:
dsRNA Feeding bioassays. dsRNA-mediated gene silencing was accomplished using voluntary feeding bioassays. Termites were pre-starved for 12 h to standardize their hunger status before the assay. The bioassay was run by placing groups of 15 worker termites into 35-mm tissue culture dishes that contained 18 mm diam. treated paper towel disks. Multiple and single dose dsRNA regimes were tested. All assays were carried out for 24-d. Paper disk moisture was monitored every other day. Every 8th day, old paper disks were replaced with new ones. These new paper disks were treated exactly the same as previous ones. Feeding (mg/dish) was determined by comparing weights of paper disks before and after confinement with termites, whereas body weight (mg/termite) was measured by comparing termite weights before and after 8-day paper consumption and then by correcting for the number of live termites at the time of sampling. Paper disks were dried in a drying oven before weighing. Mortality, paper consumption, body weight change, and/or presoldier formation were documented every 8th day. The complete experimental design included two colonies (Colony-1 and -2), with three replicate dishes per treatment per colony.
For Cell-1 dsRNA feeding bioassays, the experimental design included two treatments (triple and single dose Cell-1 dsRNA) and a control (3 doses of dsRNA buffer; Ambion; Austin, Tex.). […]

Assay [2] has as its system R. flavipes workers. As to the kind of experiment: dsRNA + JH III feeding assay, lethal times by probit analysis. It counts as in vivo, Reticulitermes flavipes. The note with it: JH III alone. How it is done:
Six additional developmental genes were targeted by combined dsRNA+JH III treatments: broad, farnesoic acid methyl transferase (FAMET-2), two family 15 cytochrome P450s (Cyp15-1, Cyp15-2), and two vitellogenin genes (Vit-1, Vit-2). dsRNAs corresponding to internal 500 base pair fragments of all six genes (see FIG. 22) were prepared as described under “description of the preferred embodiment”. Twenty μg of dsRNA was applied in 50 μL nanopure water to a penny-sized ([…]) paper disk. The disk was placed in a 5 cm tissue culture dish and 15 worker termites were added. Assays ran for 25 days at 60% relative humidity and 27 degrees C., with water being replenished and mortality/presoldier formation scored every 5th day.
LT50 and LT90 were determined from time-mortality data using probit analysis (SAS software; Cary, N.C.). In this context, the terms LT50 and LT90 refer to the estimated times at which 50% and 90% mortality occurs in response to the various RNAi treatments relative to JH III treatments alone (FIG. 23). Applying the six dsRNAs alone had no significant effects on survivorship. The LT50 and LT90 values for JH III alone were 34.5 and 65.7 days, respectively (as a result of fitness costs from elevated presoldier levels).

Take `OC[C@@H]1[C@@H](O[C@@H]2O[C@H](CO)[C@@H](O)[C@H](O)[C@H]2O)[C@H](O)[C@@H](O)c2nccn21` [CBI, cellobioimidazole]: the “inhibition of beta glucosidase activity” value in the assay with beta glucosidase is listed as “Good to excellent inhibition”. Also, the “inhibition of exoglucanases activity” value in the assay on exoglucanases is “Good to excellent inhibition”. Besides, in the assay on termite, the termite mortality entry is given as “only moderate termite mortality”.
As to `COC(=O)/C=C(\C)CC/C=C(\C)CC[C@H]1OC1(C)C` [JH III, juvenile hormone III], the caste phenotype induced entry in the assay with R. flavipes workers [1] is “wildtype caste phenotypes”. Further, the LT50 in the assay with R. flavipes workers [2] (time to 50% mortality) is listed as 34.5 days. Also, in the assay on R. flavipes workers [2] (time to 90% mortality), the LT90 was 65.7 days.
For fluromethyl cellobiose [FMCB], the “inhibition of beta glucosidase activity” value in the assay on beta glucosidase is given as “Good to excellent inhibition”. Besides, the “inhibition of exoglucanases activity” value in the assay on exoglucanases was “Good to excellent inhibition”. Moreover, in the assay on termite, the termite mortality result is on record as “only moderate termite mortality”.
